Values quoted from earlier work in patent publication US9820973B2, “Pharmaceutical formulation comprising losartan potassium and chlorthalidone” (Merck Sharp & Dohme B.V., priority 2013, dated 2017).

NS(=O)(=O)c1cc(C2(O)NC(=O)c3ccccc32)ccc1Cl (racemic) [chlorthalidone, (RS)-2-chloro-5-(1-hydroxy-3-oxo-2,3-dihydro-1H-isoindol-1-yl)benzene-1-sulfonamide]
Solubility (in words) (across the physiologic pH range): low solubility

CCCCc1nc(Cl)c(CO)n1Cc1ccc(-c2ccccc2-c2nnn[nH]2)cc1 [Losartan potassium, 2-butyl-4-chloro-1-[p-(o-1H-tetrazol-5-ylphenyl)-benzyl]imidazole-5-methanol]
Behaviour of the salt (in words) (acidic media): the salt dissociates and the losartan free acid precipitates as a gel layer | Dissolution of the salt (in words) (neutral to basic media): readily dissolves
